PubChem BioAssay (NCI)
Several values for one entry are separate records, joined by “and”; a condition that tells them apart may be missing. Identical values can stand only once.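 Exposure lasted 48 hours, with cells grown in 96-well plates and compounds tested at five concentrations. At the GI50, growth is halved. At the TGI there is no net growth.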

Tests used:
Test in all cases: DTP human tumour cell line panel, 48 h
HCT-15 colon = system: HCT-15 colon
HOP-62 NSCLC = system: HOP-62 NSCLC
K-562 leukemia = system: K-562 leukemia
KM12 colon = system: KM12 colon
MDA-MB-435 = system: MDA-MB-435
NCI-H23 lung = system: NCI-H23 lung
RXF 393 renal = system: RXF 393 renal
SF-295 CNS = system: SF-295 CNS
SNB-19 CNS = system: SNB-19 CNS
SNB-75 CNS = system: SNB-75 CNS

SMILES	TGI (HCT-15 colon)	TGI (HOP-62 NSCLC)	TGI (K-562 leukemia) [µM]	TGI (KM12 colon) [µM]	TGI (MDA-MB-435)	TGI (NCI-H23 lung) [µM]	TGI (RXF 393 renal)	TGI (SF-295 CNS) [µM]	TGI (SNB-19 CNS)	TGI (SNB-75 CNS)	GI50 (HCT-15 colon) [µM]	GI50 (HOP-62 NSCLC)	GI50 (K-562 leukemia)	GI50 (KM12 colon) [µM]	GI50 (MDA-MB-435) [µM]	GI50 (NCI-H23 lung) [µM]	GI50 (RXF 393 renal)	GI50 (SF-295 CNS) [µM]	GI50 (SNB-19 CNS)	GI50 (SNB-75 CNS) [µM]
O=C(/C=C/c1cccs1)c1ccccc1Cl	33.4 µM	32.1 µM	> 100	20.4	25.5 µM	25.8	23.7 µM	36.2	28.9 µM	28.9 µM										
CCOC(=O)c1cn(C)c(=S)n2c1nc1ccccc12	> 100 µM	> 100 µM	> 100	> 100	> 100 µM	> 100	> 100 µM	> 100	> 100 µM	> 100 µM										
CCN(CC)c1ccc2cc(-c3nc4ccccc4c(=O)[nH]3)c(=N)oc2c1	> 100 µM	> 100 µM	> 100	> 100	> 100 µM		> 100 µM	> 100	> 100 µM	> 100 µM										
Cc1ccc(S(=O)(=O)n2cc(C#N)c(C#N)c2)cc1	59 µM	68.8 µM	> 100	> 100	45.6 µM	91.3	94.3 µM	61.6		> 100 µM										
CC(C)C1(O)C(=O)N(c2c(F)c(F)c(F)c(F)c2F)C(=S)N1CCSc1ccccc1 (stereo not given)	33 µM	34.6 µM	26.7	31.5	32.8 µM	32.9	33.1 µM	32.1	31.9 µM	31.1 µM										
Cc1ccc(/C(O)=C/c2nc3ccc([N+](=O)[O-])cc3nc2/C=C(\O)c2ccc(C)cc2)cc1	> 100 µM	75.8 µM	> 100	> 100	> 100 µM	> 100	> 77.5 µM	> 100	> 77.1 µM	36.8 µM										
COC(=O)c1c(-c2ccc(Cl)cc2)cc2c3ccccc3n(C)c2c1C(=O)OC	> 100 µM	> 100 µM	> 100	> 100	> 100 µM	> 100		> 100	> 100 µM											
CCC(CC(C)C)Nc1ccc(NC(CC)CC(C)C)cc1 (stereo not given)	27.9 µM	33.3 µM	37.8	30.2	40 µM	46.3	28.1 µM	61.4	29.4 µM	38.2 µM	14.8	18.6 µM	10.7 µM	15.6	18.2	18.2	14.9 µM	23	15.9 µM	15.4
CO[C@]1(CN2CCN3CCCC[C@@H]3C2)/C=C/C[C@H](C)[C@@H](C)S(=O)(=O)NC(=O)c2ccc3c(c2)N(C[C@@H]2CC[C@H]21)C[C@@]1(CCCc2cc(Cl)ccc21)CO3			6.57	3.25	2.42 µM	2.29			4.62 µM	2.04 µM			2.28 µM	1.73	1.05	1.03			2.02 µM	0.371
CCOC(=O)C1CCCCN1CCc1c[nH]c2ccccc12 (stereo not given)	> 100 µM	> 100 µM	> 100	> 100	> 100 µM	> 100	> 100 µM	> 100	> 100 µM	> 100 µM										
CC(=O)CC(=O)CCC(=O)O	> 100 µM		> 100	> 100		> 100	> 100 µM	> 100	> 100 µM											
C/C(=N\Nc1nc2ccccc2[nH]1)c1cc2ccccc2cn1	2.51 µM		> 100	1.88	1.1 µM	1.64			1.64 µM	1.56 µM										
O=C1CC(n2cccc2)c2c(Br)sc(Br)c21 (stereo not given)	30.7 µM	53.4 µM	64.8	22.8	29.3 µM	27.9	43.4 µM	55.8	28.1 µM	35.1 µM										
CC(C)(C)OC(=O)n1cc(C2CN(O)C(=O)C23CCC(=O)N3Cc2ccccc2)c2ccccc21 (stereo not given)		> 100 µM	> 100	> 100	> 100 µM	> 100	> 100 µM	> 100	> 100 µM	> 100 µM										
Cc1csc(NC(=NCCN2CCOCC2)Nc2nc(C)cs2)n1	> 100 µM	> 100 µM	> 100	> 100		> 100	> 100 µM	> 100	> 100 µM	> 100 µM										
CSc1ccc(/C=C2\N=C(c3ccccc3)N(/N=C/c3cc4cc(C)ccc4nc3Cl)C2=O)cc1	96.5 µM	> 100 µM	57.2	33.8	26.1 µM			44.7	43.1 µM	49.2 µM										
CC(=O)O[C@H]1CC[C@@]2(C)[C@H](CC[C@@H]3[C@@H]2CC[C@]2(C)[C@@H](c4ccc(=O)oc4)C[C@H]4O[C@]342)C1	29.5 µM	2.06 µM	13	36.8		1.83	0.673 µM	2.97	9.36 µM	3.45 µM										
Cc1nc2ccc(Cl)cc2c2c1CCN2c1ccccc1	95.3 µM	83.8 µM	21.8	39.1	21.3 µM	43.6	18.6 µM	20.1	78.5 µM	> 100 µM										
O=[N+]([O-])c1cccnc1-n1cnc2ccccc21	> 100 µM	> 100 µM	> 100	> 100	> 100 µM		> 100 µM	> 100		> 100 µM										
COc1ccccc1CNCCCCCCCCCCCCN1C(=O)c2ccc3c4c(ccc(c24)C1=O)C(=O)N(CCCCCCCCCCCCNCc1ccccc1OC)C3=O	> 50 µM	> 50 µM					2.11 µM	> 50	> 50 µM	46.9 µM	> 50	3.64 µM					0.922 µM	2.24	> 50 µM	2
O=[N+]([O-])c1ccc(C(Nc2ccccc2)c2ccc3cccnc3c2O)cc1 (stereo not given)	> 100 µM	> 100 µM	> 57.4	> 100	> 78 µM	> 100	24.6 µM	> 100	> 100 µM	55.5 µM										

SMILES	TGI (HCT-15 colon)	TGI (HOP-62 NSCLC)	TGI (K-562 leukemia) [µM]	TGI (KM12 colon) [µM]	TGI (MDA-MB-435)	TGI (NCI-H23 lung) [µM]	TGI (RXF 393 renal)	TGI (SF-295 CNS) [µM]	TGI (SNB-19 CNS)	TGI (SNB-75 CNS)	GI50 (HCT-15 colon) [µM]	GI50 (HOP-62 NSCLC)	GI50 (K-562 leukemia)	GI50 (KM12 colon) [µM]	GI50 (MDA-MB-435) [µM]	GI50 (NCI-H23 lung) [µM]	GI50 (RXF 393 renal)	GI50 (SF-295 CNS) [µM]	GI50 (SNB-19 CNS)	GI50 (SNB-75 CNS) [µM]
C=C(C)[C@@H]1CC[C@]2(C(=O)O)CC[C@]3(C)[C@H](CCC4[C@@]5(C)CC[C@H](C(=O)/C=C/c6ccc(O)c(O)c6)C(C)(C)[C@@H]5CC[C@]43C)[C@@H]12 (stereo not given in full)	26.8 µM	17 µM	> 100	28.2	16.7 µM	9.62	> 100 µM	18.4	> 100 µM	> 100 µM										
O=C(c1ccco1)N(C(=S)OC12CC3CC(CC(C3)C1)C2)c1ccccc1	> 100 µM	> 100 µM	> 100	> 100	90.3 µM	87.3	44.8 µM	> 100	> 100 µM	> 100 µM										
c1ccc(-c2nnn(CCN3CCCCC3)n2)cc1	> 100 µM	> 100 µM	> 100	> 100	> 100 µM	> 100	> 100 µM	> 100	> 100 µM	> 100 µM										
C=C1C(=O)O[C@H]2[C@H]3O[C@@H](C[C@@H]12)[C@](C)(O)CC[C@@H]1O[C@@]1(C)CCC[C@H]3C	37.9 µM	> 100 µM	> 100	57.3	42.2 µM	41.7	26.9 µM	> 100	> 100 µM	96.1 µM										
Cc1ccccc1OC(C)C(=O)NN1C(=O)CC(=O)N(c2ccccc2)C1=S (stereo not given)	> 100 µM	> 100 µM	> 100	> 100	> 100 µM	> 100	> 100 µM	> 100	> 100 µM	> 100 µM										
CC1(C2CCC3(C)OC3C2)CO1 (stereo not given)		> 100 µM	> 100	> 100		> 100	> 100 µM	> 100	> 100 µM	> 100 µM										
O=C1C=CC(=O)c2c(O)c(N3CCN(CCOCCO)CC3)c(Cl)c(O)c21	817 nM [middle of 4 runs]	3.84 µM and 3.6 µM and 6.67 µM	> 100		0.907 µM and 0.486 µM		0.422 µM and 1.1 µM and 2.96 µM		26.5 µM and 18.4 µM and 26.1 µM	3.16 µM [middle of 4 runs]		2.07 µM and 0.983 µM and 2.64 µM	0.265 µM and 0.0439 µM		0.197		0.192 µM and 0.344 µM and 1.35 µM		13.4 µM [middle of 4 runs]	
C=CC1CN2CCC1CC2C(O)c1ccnc2ccccc12 (stereo not given)	> 100 µM	> 100 µM	> 100	> 100	> 100 µM	> 100	> 100 µM	> 100	> 100 µM	> 100 µM		> 100 µM	> 100 µM							> 100
Cc1cc2cc3c(cc2c(-c2ccc(N)cc2)n1)OCO3	> 100 µM	> 100 µM	92	> 100	> 100 µM	> 100		> 100	> 100 µM											
Cc1nc(-c2cc3cc(Cl)ccc3oc2=O)cc2c1c(=O)oc1ccc(Cl)cc12	> 100 µM	> 100 µM	> 100	> 100	> 100 µM	> 100	> 100 µM	> 100	> 100 µM											
CC1CC/C(=C\c2ccc(Cl)cc2)c2nc(N)c(C#N)c(-c3ccc(Cl)cc3)c21 (stereo not given)	> 100 µM	> 100 µM	> 100	> 100	> 100 µM	> 100		> 100	69.5 µM	> 100 µM										
NC(=O)CO/N=C1/C(c2c(O)[nH]c3ccccc23)=Nc2ccccc21	> 100 µM	> 100 µM	> 100	> 100	> 100 µM	> 100		> 100	> 100 µM	> 100 µM										
C#CCC1(C(=O)OCC)C(=O)c2ccccc2N(C)C1=O (stereo not given)	> 100 µM		> 100			36.9		> 100	> 100 µM	> 100 µM										
CC(=O)/C(=C\c1ccc(Cl)c(Cl)c1)C(=O)C(C)CN(C)C (stereo not given)	10.1 µM	41.1 µM		5.35	12.3 µM	30.6		16.5	5.56 µM											
CC(C)OC1OC(CO)C(O)CC1n1cc(F)c(=O)[nH]c1=O (stereo not given)	> 100 µM		86.4	> 100	> 100 µM	> 100	> 100 µM	> 100	> 100 µM	> 100 µM										
CC(=O)Nc1cc(Nc2cc(=O)[nH]c(=O)[nH]2)ccc1C	> 100 µM	> 100 µM	> 100	> 100	> 100 µM		> 100 µM	> 100	> 100 µM	> 100 µM										
CCOC(=O)C1(C(F)(F)F)N=C(CC)OC(N2CCOCC2)=N1 (stereo not given)	> 100 µM		> 100	> 100	> 100 µM	> 100	> 100 µM	> 100	> 100 µM	> 100 µM										
CN(C)c1ccc(/C=C2\N=C(c3ccccc3)N(c3ccc4c(c3)Sc3cc(N5C(=O)/C(=C/c6ccc(N(C)C)cc6)N=C5c5ccccc5)ccc3N4)C2=O)cc1	> 100 µM	32.1 µM	96.4	> 100	58 µM			36	31.3 µM	27.4 µM										
CSc1nc(NC(C)C)c2c(n1)Sc1nc3ccccc3n1C2O (stereo not given)	> 100 µM	> 100 µM	> 100	> 100	5.02 µM	> 100	30.4 µM	> 100		23.4 µM										
O=C1c2ccccc2-c2[nH]c3cn[nH]c(=O)c3c21	> 100 µM	> 100 µM	> 100	> 100	> 100 µM	> 100		> 100	> 100 µM	> 100 µM										
Nc1ncnc2c1ncn2Cc1cccc(CCl)c1	41.7 µM	30.5 µM	> 100	33	44.6 µM	36.5	18.8 µM	41.8		> 100 µM										
